Legend:
[1] = tested on: Akt1 levels in U251MG cells; experiment: Biomarker quantitation by ELISA, Akt1; format: cell-based
Experimental: (§1) U251 cells were plated in 6 well format culture dishes overnight at 37° C. with 5% CO2 and then treated with increasing concentrations of test compounds for 48 h at 37° C. with 5% CO2. Quantification of total Akt1, EGFR, and Hsp70 in cell lysates was accomplished using ELISA kits (R&D Systems) according to the manufacturer's recommendations and utilizing a Synergy HT micro-titer plate reader (Biotek). Cell lysates were prepared as recommended in the kit procedure. Protein concentrations of lysates clarified using centrifugation were determined using a Bradford assay (Thermo Scientific), and the values were used to normalize the biomarker values.

[2] = tested on: Hsp70 levels in U251MG cells; experiment: Biomarker quantitation by ELISA, Hsp70; format: cell-based; settings: 15.6 uM, 48 h
Experimental: as §1

[3] = tested on: caspase 3/7 activity in U251MG cells; experiment: Caspase activation assay (Caspase-3/7 luminescence); format: cell-based; settings: 48 h
Experimental: U251MG cells were seeded, maintained, and treated with test compounds as described above for 48 h at 37° C. Quantification of total cellular Caspase-3 and 7 activity was accomplished using a Caspase-3/7 luminescence assay kit (Promega) according to the manufacturer's recommendations and analyzed with a POLARstar Omega micro-titer plate reader (BMG).

[4] = tested on: U251MG cell mitochondrial respiration; experiment: Mitochondrial respiratory function assay (OCR, Seahorse); format: cell-based; settings: U251MG cells, stressed conditions (oligomycin, FCCP, rotenone); within minutes
Experimental: The effect of test compounds on the mitochondrial oxygen consumption rate (OCR) was determined in real time using a Seahorse Xr24 extracellular flux analyzer (Seahorse Bioscience). The cell-based assay was performed essentially as recommended by the manufacturer. Briefly, cells were seeded in a 24 well XF plate using an appropriate cell density. “Flux Pak” cartridge (containing the O2 and H^+ sensitive fluorophores) were hydrated in the XF calibrant solution overnight just prior to running the assay. On the following day, the cells were replenished with XF assay media (unbuffered DMEM containing 10 mM glucose and 2 mM pyruvate) and placed in a CO2 free 37° C. incubator for an additional one hour. Basal OCR was measured before the wells were injected with test compounds. Subsequently, mitochondrial bioenergetics stress was determined by treating the cells sequentially with 0.125 mg/ml Oligomycin (ATP synthase inhibitor), […] FCCP (uncoupler) and […] rotenone (Complex I inhibitor) while continuously measuring the OCR.

[5] = tested on: U251MG cells; experiment: Cell viability assay, ATP quantitation (ADP-Glo); format: cell-based; settings: Homo sapiens, U-251; 72 h at 37° C.; FIG. 1B
Experimental: U251MG cells were maintained at 37° C. and 5% CO2 in RPMI media supplemented with glutamax and containing 10% heat-inactivated fetal bovine serum and 1% penicillin/streptomycin (Life Sciences).
A cell counting kit (CCK-8 assay kit, Dojindo) and an ADP-Glo assay (Life Technologies) were used to quantitate the effects of test compounds on cell viability. U251MG cells were seeded into 96 well tissue culture plates and incubated for 16 h at 37° C. with 5% CO2. Increasing concentrations of test compounds were added to the wells from DMSO-containing stock solutions to a final DMSO concentration of 0.05% and incubated for 72 hr at 37° C. CCK-8 kit reagent or ADP-GLO reagent were then added to the wells and absorbance was measured at 450 nm (for the CCK assay) using a Synergy HT micro-titer plate reader (Biotek) or luminescence was measured (for the ADP-GLO assay) using a POLARstar Omega micro-titer plate reader (BMG).

[6] = tested on: Hsp90 client proteins (Akt1, ERK1) in MDA-MB-231 cell line; experiment: Cellular biomarker assays (Akt1, ERK1 ELISA) in MDA-MB-231; format: cell-based; settings: 48 hours
Experimental: (§2) Cellular biomarker assays: Cells were cultured in culture medium (RPMI-glutamax, 10% FCS, 100 units/ml penicillin, and 100 μg/ml streptomycin). Cells were passaged after lifting using 0.25% trypsin/EDTA, and 3×10^5 cells were seeded in each well of six well plates (total volume 2.5 mL/well). After the cells were cultured for 24 hours, increasing concentrations of Hsp90 inhibitor were added to wells in triplicate from DMSO-containing stock solutions and mixed by gently by stirring. Final DMSO concentration in all wells was 0.25%. The treated cells were then cultured for 48 hours prior to lysate preparation. The culture media was removed from wells, and the wells were washed twice with DPBS containing 1 mM CaCl2 and 0.5 mM MgCl2. […] The protein concentration in the cell lysates was determined using the BCA protein assay kit used according to the manufacturer's recommendations. […] Protein concentrations were determined using a micro-titer plate reader (Model # Synergy HT; BioTek Inc., Winooski, Vt.).
(§3) Akt1 and ERK1 levels in the cell lysates were measured using kits from R&D Systems used according to the manufacturer's recommendations. […] Akt1 and ERK1 levels were determined using a micro-titer plate reader (Model # Synergy HT; BioTek Inc., Winooski, Vt.) (FIGS. 5 and 8).

[7] = tested on: Hsp90 client proteins (Akt1, ERK1) in HEI193; experiment: Cellular biomarker assays (Akt1, ERK1 ELISA) in HEI193; format: cell-based, human; settings: 48 hour treatment
Experimental: as §2, §3

[8] = tested on: MDA-MB-231 cells; experiment: TMRE assay, MDA-MB-231 cell mitochondrial integrity; format: cell-based; settings: 2 hours or 4 hours
Experimental: Mitochondrial integrity was evaluated using Tetramethylrhodamine ethyl ester (TMRE) assay. A TMRE assay kit (Abcam) was used to evaluate Hsp90/TRAP1 inhibitor-induced changes in mitochondrial membrane potential. […] TMRE (200 nM) was then added to wells for 30 min and monitored for changes in fluorescence activity using a fluorescence plate reader (ex544/em 590) after washing the cells. Specific TMRE fluorescence was calculated by comparison to matched wells pretreated with the depolarizing proton ionophore carbonyl cyanide 4-(trifluoromethoxy)phenylhydrazone (FCCP) at 20 uM 10 min prior to addition of TMRE. For mitochondria assays, mitochondria was isolated using a kit from Thermoscientific and loaded with 0.1 mM TMRE. TMRE-loaded mitochondria (2 μg per well) were incubated with test compounds and monitored kinetically at 30° C. for changes in fluorescence using a flurorescence plate reader (ex 544/em 590) (FIGS. 6A, 9A and 12).

SMILES: COc1c(C)cnc(CN(CCc2ccccn2)c2cc(Cl)nc(N)n2)c1C [Compound 1, 6-chloro-4-N-[(4-methoxy-3,5-dimethylpyridin-2yl)methyl]-4-N-[2-(pyridine-2-yl)ethyl]pyrimidine-2,4-amine]
- Reduction of Akt1 levels ([1]; 15.6 uM, 48 h): 79%
- IC50 ([1]; Homo sapiens, U-251, 48 h, read-out: Akt1 level reduction IC50): 2400 nM
- Increase of Hsp70 levels [2]: 6 fold
- U251MG caspase 3/7 activity increase ([3]; 50 uM): 6.8 fold
- Lowest concentration at which an increase in caspase activity was observed ([3]; U251MG): 1.6 µM
- Effect on mitochondrial oxygen consumption rate [4]: dose-dependent decrease
- IC50 [5]: 2500 nM

SMILES: COc1c(C)cnc(CN(CC2(c3ccc(F)cc3)CCOCC2)c2cc(Cl)nc(N)n2)c1C [Compound A, 6-chloro-4-N-{[4-(4-fluorophenyl)oxan-4-yl]methyl}-4-N-[(4-methoxy-3,5-dimethylpyridin-2-yl)methyl]pyrimidine-2,4-diamine]
- Effect on Akt1 and ERK1 levels, MDA-MB-231 [6]: suppression of Hsp90 client proteins
- Effect on Akt1 and ERK1 levels, HEI193 [7]: reduction of Hsp90 client proteins
- Effect on TMRE fluorescence of MDA-MB-231 cells [8]: dose-dependent decrease

Reference: patent publication US10189824B2, “Pyrimidine-diamine dual HSP90/TRAP1 inhibitors” (CalAsia Pharmaceuticals, Inc., priority 2014, dated 2019)
